± gives the expanded uncertainty stated by the source.
Experiment: excess molar enthalpy (molar enthalpy of mixing); xn = mol fraction of the nth substance listed
Details: 298.15 K, 101 kPa, Liquid

With CCCCCCCl [1-chlorohexane] + c1ccccc1 the excess molar enthalpy (x2 = 0.0723) was 0.00146 ± 0.000382 kcal/mol, the excess molar enthalpy (x2 = 0.0744) was 0.0017 ± 0.000406 kcal/mol and the excess molar enthalpy (x2 = 0.0805) was 0.00146 ± 0.000382 kcal/mol. It also gave an excess molar enthalpy (x2 = 0.0888) of 0.00167 ± 0.000406 kcal/mol, an excess molar enthalpy (x2 = 0.1407) of 0.00311 ± 0.00043 kcal/mol and an excess molar enthalpy (x2 = 0.1427) of 0.00351 ± 0.00043 kcal/mol. The excess molar enthalpy (x2 = 0.1437) was 0.00351 ± 0.00043 kcal/mol, the excess molar enthalpy (x2 = 0.2125) was 0.00538 ± 0.000454 kcal/mol and the excess molar enthalpy (x2 = 0.2862) was 0.00791 ± 0.000502 kcal/mol. For the same molecule, the excess molar enthalpy (x2 = 0.3323) was 0.00992 ± 0.000526 kcal/mol, the excess molar enthalpy (x2 = 0.394) was 0.0127 ± 0.000574 kcal/mol and the excess molar enthalpy (x2 = 0.4431) was 0.0156 ± 0.000621 kcal/mol. For the same molecule, the excess molar enthalpy (x2 = 0.5015) was 0.0189 ± 0.000669 kcal/mol, the excess molar enthalpy (x2 = 0.5375) was 0.0208 ± 0.000693 kcal/mol and the excess molar enthalpy (x2 = 0.541) was 0.0208 ± 0.000693 kcal/mol. It also gave an excess molar enthalpy (x2 = 0.5524) of 0.0218 ± 0.000717 kcal/mol, an excess molar enthalpy (x2 = 0.582) of 0.0229 ± 0.000717 kcal/mol and an excess molar enthalpy (x2 = 0.6153) of 0.0245 ± 0.000741 kcal/mol. The excess molar enthalpy (x2 = 0.6575) was 0.0256 ± 0.000765 kcal/mol, the excess molar enthalpy (x2 = 0.7164) was 0.0265 ± 0.000789 kcal/mol and the excess molar enthalpy (x2 = 0.7288) was 0.0266 ± 0.000789 kcal/mol. The excess molar enthalpy (x2 = 0.7352) was 0.0262 ± 0.000765 kcal/mol, the excess molar enthalpy (x2 = 0.7928) was 0.025 ± 0.000765 kcal/mol and the excess molar enthalpy (x2 = 0.8215) was 0.0242 ± 0.000741 kcal/mol. The excess molar enthalpy (x2 = 0.8484) was 0.0224 ± 0.000717 kcal/mol, the excess molar enthalpy (x2 = 0.8629) was 0.0207 ± 0.000693 kcal/mol and the excess molar enthalpy (x2 = 0.894) was 0.0174 ± 0.000645 kcal/mol. It also gave an excess molar enthalpy (x2 = 0.9274) of 0.0132 ± 0.000574 kcal/mol and an excess molar enthalpy (x2 = 0.9535) of 0.00918 ± 0.000502 kcal/mol.
